Laboratory results: patent US5116960A, “Amphotericin B derivatives” (Beecham Group p.l.c., priority 1988, dated 1992)
Converted amounts (≈) assume the structure as drawn.

Columns and labels:
[1] = test system: Candida parapsilosis 937 A; assay: Minimum Inhibitory Concentration (MIC) by broth dilution in microtitre tray, Candida parapsilosis 937 A; format: cell-based; details: 37° C., inoculum 10^5
Experimental: (§1) The Minimum Inhibitory Concentration (MIC) was determined by diluting the test compound in a broth medium in a microtitre tray. The organisms, which had been grown previously in a broth medium (yeast nitrogen base+1% glucose), were diluted and added to the wells to provide a final inoculum of approximately 10^5 colony-forming units per well. The trays were incubated at 37° C. and the turbidity of each well noted at intervals. The MIC was taken as the lowest concentration (in μg/ml) which prevented significant growth. |Minimum Inhibitory Concentration (μg/ml) |(determined after 2 and 3 days incubation) | *Inoculum 10^5 cells/ml

Candida albicans 73/079 = assay: Minimum Inhibitory Concentration (MIC) by broth dilution in microtitre tray, Candida albicans 73/079; format: cell-based; details: 37° C., inoculum 10^5
Experimental: as §1

[2] = 48 h, determined after 2 days incubation
[3] = 72 h, determined after 3 days incubation
[4] = 48 h, Candida albicans 73/079, determined after 2 days incubation
[5] = 72 h, Candida albicans 73/079, determined after 3 days incubation

Row | MIC [1, 2] [µg/mL] | MIC [1, 3] [µg/mL] | MIC (Candida albicans 73/079; [4]) [µg/mL] | MIC (Candida albicans 73/079; [5]) [µg/mL] | SMILES
1 | 4 (≈ 4.41 µM) | 8 (≈ 8.83 µM) | 2 (≈ 2.21 µM) | 4 (≈ 4.41 µM) | C[C@@H]1[C@H](O)[C@@H](C)/C=C/C=C/C=C/C=C/C=C/C=C/C=C/[C@H](O[C@@H]2O[C@H](C)[C@@H](O)[C@H](N)[C@@H]2O)C[C@@H]2OC(=C[C@H](O)[C@H]2C(=O)O)C[C@@H](O)C[C@@H](O)[C@H](O)CC[C@@H](O)C[C@@H](O)CC(=O)O[C@H]1C [Example E6, 13,14-Anhydroamphotericin B]
2 | 32 (≈ 34.8 µM) | 32 (≈ 34.8 µM) | 16 (≈ 17.4 µM) | 32 (≈ 34.8 µM) | COC(=O)[C@H]1[C@@H]2C[C@@H](O[C@@H]3O[C@H](C)[C@@H](O)[C@H](N)[C@@H]3O)/C=C/C=C/C=C/C=C/C=C/C=C/C=C/[C@H](C)[C@@H](O)[C@@H](C)[C@H](C)OC(=O)C[C@H](O)C[C@H](O)CC[C@@H](O)[C@H](O)C[C@H](O)CC(=C[C@@H]1O)O2 [Example E10]
3 | 8 (≈ 8.97 µM) | 16 (≈ 17.9 µM) | 4 (≈ 4.48 µM) | 8 (≈ 8.97 µM) | C[C@@H]1[C@H](O)[C@@H](C)/C=C/C=C/C=C/C=C/C=C/C=C/C=C/[C@H](O[C@@H]2O[C@H](C)[C@@H](O)[C@H](N)[C@@H]2O)C[C@@H]2OC(=C[C@H](O)[C@H]2CO)C[C@@H](O)C[C@@H](O)[C@H](O)CC[C@@H](O)C[C@@H](O)CC(=O)O[C@H]1C [Example E12]
